The values that follow are results of earlier work, collected in patent publication US6504031B1, “Naphthamidine urokinase inhibitors” (priority 1998, dated 2003).

One series concerns angiogenesis. To be noted: J. Cell Biol. 1991, 115[3 Pt 2], 402a.
In a further series the test system is tumor metastasis. The following applies: Anticancer Res. 1988, 8, 1373-1376.

Take `N=C(N)NC(=O)c1nc(Cl)c(N)nc1N` [Amiloride]: in the series on angiogenesis, the “inhibition of angiogenesis in vitro” value is given as “inhibit”. Also, the “inhibition of tumor metastasis in vivo” value in the series with tumor metastasis is “inhibit tumor metastasis”.
